Measurements from PubChem BioAssay AID2060897 (Molecular Pharmacology Branch, DTP, NCI, 2025).
pIC50: −log10 of the molar value.

Test system: 966289-007-R4-J1-PDC complex spheroid viability
Assay: Anticancer human tumor 966289-007-R4-J1-PDC patient-derived pancreatic adenocarcinoma cell line growth inhibition [RAS]
Details: for pIC50: curve of first compound; for viability, T/C: stronger effect = lower value
Excerpt: RAS pathway inhibitors in Combinations in Complex Spheroids
A high-throughput screen of multi-cell type tumor spheroids was designed to identify active combinations of RAS pathway inhibitors and targeted small molecules. Complex spheroids include a stromal component modeled by human endothelial cells (HUVEC) and fibroblasts modeled by human mesenchymal stem cells (MSCs). The concentration ranges selected for each drug and investigational agent were based upon clinically achievable concentrations if the clinical Cmax of the agent was known.
Compounds. The drugs and investigational agents: abemaciclib (NSC768073), cobimetinib (NSC768068), divarasib (GDC6063, NSC841802), docetaxel (NSC628503), GDC-1971 (RLY-1971, NSC841576), gemcitabine (NSC613327), inavolisib (NSC800729), ipatasertib (NSC767898), KB-0742 (NSC834161), MRTX-1133 (NSC836407), osimertinib (NSC779217), RMC-4630 (NSC839698), RMC-6236 (NSC851965), RMC-6291 (NSC852671), Ro-3306 (NSC812927), sapanisertib (NSC764658), SN-38 (NSC673596), staurosporine (NSC755774), SY5609 (NSC837396), and tovorafenib (DAY101, NSC766906), were obtained from the National Cancer Institute (NCI) Developmental Therapeutics Program Chemical Repository. The FDA-approved anticancer drug set is available from the NCI Developmental Therapeutics Program. […] The stock solutions were prepared in dimethyl sulfoxide (DMSO, Sigma-Aldrich, St. Louis, MO, cat. D2650) at 800-fold the tested concentration and stored at -70 degrees C prior to their use. All drugs and investigational agents were tested over a range starting from a high concentration at or near the clinical Cmax and decreasing in half-log increments. If the clinical Cmax for an agent had not been determined, the highest concentration tested was 10 microM.
Cell Culture. All cells were maintained in an incubator at 37 degrees C and 5% CO2 with 95% humidity. The PDC lines were cultured according to standard operating procedures established by the NCI PDMR. All PDCs were thawed and cultured in Matrigel-coated flasks prepared with a working solution of 1X Ham's F-12 nutrient mix, without supplementation (Invitrogen, Waltham, MA, cat. 11765054), 100 U/mL penicillin-streptomycin (Invitrogen, cat. 15140122), and 2.5% Matrigel (Corning Inc., Corning, NY, cat. 354248) for the first three passages. The 362531-283-R-J2-PDC and 782815-120-R-J1-PDC lines were cultured in 6C/Colon 1B media, which includes advanced DMEM/F-12 (Thermo Fisher Scientific, cat. 12634028), 10 mM HEPES (Thermo Fisher Scientific, cat. 15630080), 1X GlutaMAX supplement (Thermo Fisher Scientific, cat. 35050061), 0.1 mg/mL primocin (InvivoGen, San Diego, CA, cat. ant-pm-2), 10% defined fetal bovine serum, heat inactivated (HyClone Laboratories Inc., Logan, UT, cat. SH30070.03HI), 50% L-WRN conditioned media (ATCC, cat. CRL-3276), 1.25 mM N-Acetyl-L-cysteine (Sigma-Aldrich, cat. A9165), 10 mM nicotinamide (Sigma-Aldrich, cat. N0636), 1X B-27 supplement (Thermo Fisher Scientific, cat. 17504044), 1X N-2 supplement (Thermo Fisher Scientific, cat. 17502048), 50 ng/mL human EGF (Thermo Fisher Scientific, cat. PHG0311), and 10 microM Y-27632 dihydrochloride (Tocris Bioscience, cat. 1254). The K12877-001-R-J1-PDC line was cultured in 6I media, which includes all 6C/Colon 1B media plus 10 ng/mL human FGF-10 (PeproTech, cat. 100-26), 1 ng/mL human FGF-2 (PeproTech, cat. 100-18B), 1 µM prostaglandin E2 (Tocris Bioscience, cat. 2296), […] hydrocortisone (Sigma-Aldrich, cat. H4001), and […] bovine insulin (Sigma-Aldrich, cat. I6634). The K86415-001-R-J1-PDC line was cultured in 6D media, which includes all 6C/Colon 1B media components minus the L-WRN conditioned media. The 485176-168-R4-J1-PDC was cultured in PANC media, which includes all 6C/Colon 1B media plus 100 ng/mL human FGF-10 (PeproTech, cat. 100-26), 500 nM SB-431542 (Selleckchem, cat. S1067), and 10 nM gastrin (Tocris Bioscience, cat. 3006). […]
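Also: spheroids exposed to agents for one week before readout.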
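For viability, T/C in this document: percent viability relative to DMSO vehicle control wells as 100%.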

Compound `C[C@@H](NC(=O)c1ncnc(N)c1Cl)c1ncc(C(=O)Nc2cc(C(F)(F)F)c(Cl)cn2)s1` + C#Cc1c(F)ccc2cc(O)cc(-c3ncc4c(N5CC6CCC(C5)N6)nc(OCC56CCCN5CC(F)C6)nc4c3F)c12 has a pIC50 (second compound 0.0316 µM) of less than 5.00, a pIC50 (second compound 0.1 µM) of less than 5.00 and a pIC50 (second compound 0.316 µM) of less than 5.00. For the same compound, the pIC50 (second compound 1 µM) was less than 5.00, the pIC50 (second compound 3.16 µM) was less than 5.00 and the pIC50 (second compound 10 µM) was less than 5.00. For the same compound, the viability, T/C (second compound 0.0316 µM, first compound 0.0316 µM) was 109%, the viability, T/C (second compound 0.0316 µM, first compound 0.1 µM) was 118% and the viability, T/C (second compound 0.0316 µM, first compound 0.316 µM) was 130%. It also gave a viability, T/C (second compound 0.0316 µM, first compound 1 µM) of 119%, a viability, T/C (second compound 0.0316 µM, first compound 3.16 µM) of 117% and a viability, T/C (second compound 0.0316 µM, first compound 10 µM) of 86.8%. The viability, T/C (second compound 0.1 µM, first compound 0.0316 µM) was 111%, the viability, T/C (second compound 0.1 µM, first compound 0.1 µM) was 114% and the viability, T/C (second compound 0.1 µM, first compound 0.316 µM) was 103%. It also gave a viability, T/C (second compound 0.1 µM, first compound 1 µM) of 106%, a viability, T/C (second compound 0.1 µM, first compound 3.16 µM) of 109% and a viability, T/C (second compound 0.1 µM, first compound 10 µM) of 95.7%. For the same compound, the viability, T/C (second compound 0.316 µM, first compound 0.0316 µM) was 105%, the viability, T/C (second compound 0.316 µM, first compound 0.1 µM) was 126% and the viability, T/C (second compound 0.316 µM, first compound 0.316 µM) was 124%. It also gave a viability, T/C (second compound 0.316 µM, first compound 1 µM) of 111%, a viability, T/C (second compound 0.316 µM, first compound 3.16 µM) of 112% and a viability, T/C (second compound 0.316 µM, first compound 10 µM) of 75.7%. For the same compound, the viability, T/C (second compound 1 µM, first compound 0.0316 µM) was 105%, the viability, T/C (second compound 1 µM, first compound 0.1 µM) was 123% and the viability, T/C (second compound 1 µM, first compound 0.316 µM) was 134%. The viability, T/C (second compound 1 µM, first compound 1 µM) was 130%, the viability, T/C (second compound 1 µM, first compound 3.16 µM) was 130% and the viability, T/C (second compound 1 µM, first compound 10 µM) was 87.6%. The viability, T/C (second compound 3.16 µM, first compound 0.0316 µM) was 119%, the viability, T/C (second compound 3.16 µM, first compound 0.1 µM) was 110% and the viability, T/C (second compound 3.16 µM, first compound 0.316 µM) was 118%. It also gave a viability, T/C (second compound 3.16 µM, first compound 1 µM) of 122%, a viability, T/C (second compound 3.16 µM, first compound 3.16 µM) of 123% and a viability, T/C (second compound 3.16 µM, first compound 10 µM) of 86%. The viability, T/C (second compound 10 µM, first compound 0.0316 µM) was 107%, the viability, T/C (second compound 10 µM, first compound 0.1 µM) was 108% and the viability, T/C (second compound 10 µM, first compound 0.316 µM) was 134%. It also gave a viability, T/C (second compound 10 µM, first compound 1 µM) of 125%, a viability, T/C (second compound 10 µM, first compound 3.16 µM) of 124% and a viability, T/C (second compound 10 µM, first compound 10 µM) of 91.3%.
